The text below walks through data of patent US7192617B2, “Whitening agent, skin preparation for external use and cosmetic” (priority 2002, dated 2007).

SMILES strings stand for the structures.

This assay can be described thus: Test for measuring DPPH radical scavenging activity. The settings on record: 30 minutes of reaction at 30° C., absorbance at 517 nm; in terms of the evaporation residue. The method, then:
800 μl of a 500 μM DPPH solution was added to the test tube, stirred, and reacted at 30° C. Exactly after 30 minutes of reaction, the absorbance of the sample at 517 nm was measured, using distilled water as a standard. From the measured absorbances, the DPPH radical scavenging ratio was calculated, and the 50% radical scavenging activity (IC50) was obtained. The same procedure was performed with α-tocopherol, which is a known antioxidative component, for measuring the DPPH radical scavenging activity. […] From the measured values, the DPPH radical scavenging ratios were calculated.
(In general: Loss of DPPH colour is used to gauge radical scavenging.)

As to `Cc1c(C)c2c(c(C)c1O)CC[C@@](C)(CCC[C@H](C)CCC[C@H](C)CCCC(C)C)O2` [α-tocopherol], the “50% DPPH radical scavenging activity (IC50)” value is on record as 0.13 mg/g.
